Experiments:
in vivo = conditions: mouse, po, 200 mg/kg
KB 3-1 = assay: cells; conditions: Homo sapiens
Description: In vitro inhibitory activity against EGF-stimulated proliferation of KB2 cells in culture

[1] = biological target: Epidermal growth factor receptor (Homo sapiens, UniProt P00533);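 further: tyrosine kinase inhibition of EGFR isolated from A431 vulval squamous carcinoma cells, measured in vitro with a TKI assay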
Chain of Epidermal growth factor receptor (P00533 whole entry): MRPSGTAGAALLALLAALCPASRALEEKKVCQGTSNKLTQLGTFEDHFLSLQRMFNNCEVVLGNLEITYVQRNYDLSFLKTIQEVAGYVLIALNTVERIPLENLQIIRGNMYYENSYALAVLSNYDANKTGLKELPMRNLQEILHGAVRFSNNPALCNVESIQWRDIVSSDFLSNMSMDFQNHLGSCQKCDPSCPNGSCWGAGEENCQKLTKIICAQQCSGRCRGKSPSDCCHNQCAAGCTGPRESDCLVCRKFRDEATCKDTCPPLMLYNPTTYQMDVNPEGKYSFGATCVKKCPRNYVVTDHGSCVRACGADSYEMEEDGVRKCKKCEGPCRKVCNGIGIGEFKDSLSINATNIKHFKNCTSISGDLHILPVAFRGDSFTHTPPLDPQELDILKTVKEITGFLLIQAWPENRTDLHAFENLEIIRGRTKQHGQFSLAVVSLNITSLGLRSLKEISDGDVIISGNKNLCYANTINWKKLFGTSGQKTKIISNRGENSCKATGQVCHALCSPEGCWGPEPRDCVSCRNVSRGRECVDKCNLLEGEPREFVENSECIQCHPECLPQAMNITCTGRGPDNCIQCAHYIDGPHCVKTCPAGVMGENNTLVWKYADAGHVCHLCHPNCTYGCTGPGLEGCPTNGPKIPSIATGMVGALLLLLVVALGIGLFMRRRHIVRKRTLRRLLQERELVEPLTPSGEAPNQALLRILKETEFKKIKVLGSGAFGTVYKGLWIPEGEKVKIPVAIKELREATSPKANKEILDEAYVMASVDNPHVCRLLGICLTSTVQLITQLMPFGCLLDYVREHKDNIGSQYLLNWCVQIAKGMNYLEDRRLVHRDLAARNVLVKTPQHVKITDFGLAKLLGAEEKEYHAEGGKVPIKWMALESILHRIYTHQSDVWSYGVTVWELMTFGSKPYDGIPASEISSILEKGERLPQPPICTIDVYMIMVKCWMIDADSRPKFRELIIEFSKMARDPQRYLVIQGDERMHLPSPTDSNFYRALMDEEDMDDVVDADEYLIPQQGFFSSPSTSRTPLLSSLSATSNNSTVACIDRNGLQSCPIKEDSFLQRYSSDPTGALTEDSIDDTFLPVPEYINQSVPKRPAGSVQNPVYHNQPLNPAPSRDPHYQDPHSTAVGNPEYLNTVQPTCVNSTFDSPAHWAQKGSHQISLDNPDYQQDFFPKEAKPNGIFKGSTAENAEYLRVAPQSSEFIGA
Description: In vitro inhibitory activity against Epidermal growth factor receptor (EGFR-TK) from A431 vulval squamous carcinoma cells using TKI assay

Row | Structure (SMILES) | concentration at 6 h (in vivo) | IC50 (KB 3-1) | IC50 [1]
1 | COc1cc2ncnc(Nc3ccc(F)c(Cl)c3)c2cc1OCCN1CCOCC1 | 156 µM | 0.38 µM | –
2 | COc1cc2ncnc(Nc3ccc(F)c(Cl)c3)c2cc1OC[C@@H](O)CN1CCOCC1 | 23 µM | 0.16 µM | 0.095 µM
3 | COc1cc2ncnc(Nc3ccc(F)c(Cl)c3)c2cc1OC[C@H](O)CN1CCOCC1 | 15 µM | 0.13 µM | 0.067 µM
4 | COc1cc2ncnc(Nc3ccc(F)c(Cl)c3)c2cc1OCCCN1CCCCC1 | 5.2 µM | – | –
5 | COc1cc2ncnc(Nc3ccc(F)c(Cl)c3)c2cc1OCCn1ccnc1 | 164 µM | – | –
6 | COCCN(CCOC)CCOc1cc2c(Nc3ccc(F)c(Cl)c3)ncnc2cc1OC | 7.2 µM | 0.17 µM | 0.061 µM
7 | COc1cc2ncnc(Nc3ccc(F)c(Cl)c3)c2cc1OCCCN1CCCC1 | 8.8 µM | – | –
8 | COc1cc2ncnc(Nc3ccc(F)c(Cl)c3)c2cc1OCC(O)CN(CCO)CCO (stereo not drawn) | 0.2 µM | 0.85 µM | 0.005 µM
9 | COc1cc2ncnc(Nc3ccc(F)c(Cl)c3)c2cc1OCCN1CCN(C)CC1 | 7.1 µM | 0.09 µM | –
10 | COc1cc2ncnc(Nc3ccc(F)c(Cl)c3)c2cc1OC | 16 µM | – | –
11 | CCN(CC)CCCOc1cc2c(Nc3ccc(F)c(Cl)c3)ncnc2cc1OC | 5.4 µM | – | –
12 | COc1cc2ncnc(Nc3ccc(F)c(Cl)c3)c2cc1OCCN1CCCCC1 | 16 µM | – | –
13 | COc1cc2ncnc(Nc3ccc(F)c(Cl)c3)c2cc1OCC(O)CN (stereo not drawn) | 0.1 µM | – | –
14 | COc1cc2ncnc(Nc3cccc(C)c3)c2cc1OC | – | 0.05 µM | –
15 | COc1cc2ncnc(Nc3ccc(F)c(Cl)c3)c2cc1OCCN1CCCC1 | 8.2 µM | – | –
16 | COc1cc2ncnc(Nc3ccc(F)c(Cl)c3)c2cc1OCC(O)Cn1ccnc1 (stereo not drawn) | 0.04 µM | 0.38 µM | 0.008 µM

The remaining lines, values ahead:

Row | concentration at 6 h (in vivo) | IC50 (KB 3-1) | IC50 [1] | Structure (SMILES)
17 | 2.8 µM | 0.31 µM | 0.093 µM | CCN(CC)CCOc1cc2c(Nc3ccc(F)c(Cl)c3)ncnc2cc1OC
18 | 1.6 µM | 0.35 µM | 0.008 µM | CNCCOc1cc2c(Nc3ccc(F)c(Cl)c3)ncnc2cc1OC
19 | 0.4 µM | 0.22 µM | 0.31 µM | COc1cc2ncnc(Nc3ccc(F)c(Cl)c3)c2cc1OCCNC(C)C
20 | 0.1 µM | 0.91 µM | 0.069 µM | COc1cc2ncnc(Nc3ccc(F)c(Cl)c3)c2cc1OCCNC(C)(CO)CO
21 | – | 0.22 µM | 0.005 µM | CNCC(O)COc1cc2c(Nc3ccc(F)c(Cl)c3)ncnc2cc1OC (stereo not drawn)
22 | 1 µM | 0.46 µM | 0.035 µM | COc1cc2ncnc(Nc3ccc(F)c(Cl)c3)c2cc1OCCN(CCO)CCO
23 | 11 µM | 0.18 µM | 0.008 µM | COCCNCCOc1cc2c(Nc3ccc(F)c(Cl)c3)ncnc2cc1OC
24 | 1.1 µM | 0.15 µM | 0.002 µM | COc1cc2ncnc(Nc3ccc(F)c(Cl)c3)c2cc1OCCNCCN(C)C
25 | 52 µM | 0.12 µM | 0.007 µM | COc1cc2ncnc(Nc3ccc(F)c(Cl)c3)c2cc1OCCN(C)C
26 | 0.1 µM | 0.32 µM | 0.1 µM | COc1cc2ncnc(Nc3ccc(F)c(Cl)c3)c2cc1OCCNC(C)(C)C
27 | 34 µM | – | – | COc1cc2ncnc(Nc3ccc(F)c(Cl)c3)c2cc1OCCCN(C)C

Source: ChEMBL document CHEMBL1134804, “Studies leading to the identification of ZD1839 (IRESSA): an orally active, selective epidermal growth factor receptor tyrosine kinase inhibitor targeted to the treatment of cancer” (Bioorg Med Chem Lett, 2001)
